Laboratory results published in article PMC3755750 (Cancer chemotherapy and pharmacology, 2013).
Like-named read-outs stand apart in the source and are kept apart here. Values belong to the molecule of their own block, whether it stands above or below them.

Experiments:
[1] = cited from earlier work
[2] = ref Pubchem Compound; cited from earlier work
[3] = cited from earlier work; for Fa, fraction absorbed / Bioavailability / Fraction of dose absorbed: mice; for Fa, fraction absorbed: fixed in the PBPK model; for Bioavailability: oral
[4] = type: in vivo, mice (BALB/c, CB17 SCID, tumor-bearing CB17 SCID); details: for Tmax: BALB/c, mouse, po; for Dose proportionality of Cmax in plasma and tissues: across mouse strains, sorafenib: all tissues except the tumor; for ka, absorption rate constant: fitted to Study#1 data, then fixed
[5] = concomitant CYP3A4 inhibitor ketoconazole; cited from earlier work
CYP2C19 = details: human liver microsomes; cited from earlier work
P-glycoprotein (P-gp) = details: in vitro; cited from earlier work
CYP2D6 = details: human liver microsomes; cited from earlier work
CYP3A4 = details: human liver microsomes; cited from earlier work
[6] = iv dosing; cited from earlier work
[7] = CB17-SCID, plasma and most tissues

- Tmax [4, 7]: 1 h
- Tmax ([4]; adipose and skin, 5 mg/kg): ≤ 6 h
- Kbr, partition coefficient brain ([4]; PBPK population mean, mice): 0.018
- Kmu, partition coefficient muscle ([4]; PBPK population mean, mice): 0.105
- Ksp, partition coefficient spleen ([4]; PBPK population mean, mice): 0.361
- Dose proportionality of Cmax in plasma and tissues [4]: dose-proportional
- ka, absorption rate constant [4]: 9.45 h⁻¹
- Time detected in plasma and all tissues after the last dose ([4]; oral dosing): up to 24 h
- Ktu, partition coefficient tumor ([4]; patient-derived primary pancreatic adenocarcinoma explants in SCID mice): 0.480
- PK (AUC) given alone versus in combination ([4]; student's t test of AUCs from each study, mice): no statistically significant difference
Structure (SMILES): CO[C@H]1C[C@@H]2CC[C@@H](C)[C@@](O)(O2)C(=O)C(=O)N2CCCC[C@H]2C(=O)O[C@H]([C@H](C)C[C@@H]2CC[C@@H](OCCO)[C@H](OC)C2)CC(=O)[C@H](C)/C=C(\C)[C@@H](O)[C@@H](OC)C(=O)[C@H](C)C[C@H](C)/C=C/C=C/C=C/1C [everolimus, Everolimus]
- Increase of everolimus AUC ([1]; concomitant strong CYP inhibitor ketoconazole, humans): 15 fold
- Increase of everolimus AUC ([1]; moderate CYP inhibitors erythromycin, verapamil, cyclosporine): 2.7–4.5 fold
- Change in everolimus AUC ([1]; weak inhibitor atorvastatin): no change
- log P [2]: 5.9
- Fa, fraction absorbed [3]: 0.12
- Bioavailability [3]: 5%
- Fraction of dose absorbed [3]: 12%

- Tmax ([4]; CB17-SCID, GI tract): 1 h
- Tmax [4, 7]: 6 h
- Kf, partition coefficient adipose ([4]; PBPK population mean, mice): 0.624
- Kmu, partition coefficient muscle ([4]; PBPK population mean, mice): 0.356
- Ksk, partition coefficient skin ([4]; PBPK population mean, mice): 0.361
- Clint, hepatic clearance ([4]; PBPK population mean, oral dosing, mice): 6.64 mL/h
- Dose proportionality of Cmax in plasma and tissues [4]: dose-proportional
- ka, absorption rate constant [4]: 3.83 h⁻¹
- Time detected in plasma and all tissues after the last dose ([4]; oral dosing): up to 24 h
- Increase in tumor exposure ([4]; twofold increase in sorafenib dose): tenfold
Structure (SMILES): CNC(=O)c1cc(Oc2ccc(NC(=O)Nc3ccc(Cl)c(C(F)(F)F)c3)cc2)ccn1 [sorafenib, Sorafenib]
- Change in Cmax and exposure, adverse events [5]: lack of clinically relevant adverse events or change in Cmax and exposure
- CYP2C19 inhibition (CYP2C19): moderate inhibitor
- P-gp substrate character (P-glycoprotein (P-gp)): weak P-glycoprotein (P-gp) substrate
- CYP2D6 inhibition (CYP2D6): moderate inhibitor
- Dose proportionality in Cmax and AUC ([3]; CD-1 mice, at the doses tested): dose proportionality
- Terminal half-life ([3]; CD-1 mice): 3.2 to 4.2 h
- Tmax ([3]; CD-1 mice): 1 to 1.6 h
- Fa, fraction absorbed [3]: 0.920
- Bioavailability [3]: 80%
- Fraction of dose absorbed [3]: 92%
- CYP3A4 inhibition (CYP3A4): moderate inhibitor
- Partition coefficient K for brain, calculated [6]: 0.02
